# Like-named read-outs stand apart in the source and are kept apart here.
# Columns and labels:
# [1] = test system: VSV (Vesicular Stomatitis Virus); experiment: microbe, parasite or virus in culture; format: cell-based
# [2] = biological target: reverse transcriptase du HIV1 (Human immunodeficiency virus type 1 group M subtype B, UniProt P04585); experiment: Reverse transcriptase activity of HIV1 incubated with NP derivatives, tested immediately; format: biochemical; conditions: témoin virus 11924
# Experimental: (§1) La technique de culture et de titrage de la reverse-transcriptase du HIV est rappelée ci-après : Des lymphocytes humains, préalablement activés par la PHA (phytohémagglutinine) sont incubés dans un milieu nutritif (RPMI 1640 + sérum de veau foetal + antibiotiques + β-mercaptoéthanol 10⁻⁵M + 2»g/ml polybrene + sérum anti-interféron 1/2000 + IL2 10%). Après centrifugation, le culot cellulaire est mis en présence du HIV1 (10.000 cpm/10⁶ cellules) pendant 1 heure à 37°. Après lavage et centrifugation, les cellules sont resuspendues dans du milieu nutritif. Les surnageants de culture cellulaire sont suivis pendant plusieurs jours pour leur activité reverse transcriptase. Ils sont centrifugés 7 minutes à 95000 tours et le culot est lysé par du Triton® 0,1% (produit Touzart et Matignon). Un mélange réactionnel est ajouté (Tris, DTT (dithiothreitol), MgCl₂, KCl, PolyA, Oligo dT, ³HTTP, H₂O) et après 1 heure d'incubation à 37°C, la réaction est arrêtée avec du pyrophosphate de sodium et de l'acide nucléique de levure est ajouté pour aider la précipitation. De l'acide trichloracétique (TCA) est ajouté et la solution est laissée 15 minutes à 4°C. Après filtration sous vide avec des filtres millipores 0.45 »m et plusieurs lavages avec du TCA (0.5%), on procède au rinçage à l'éthanol, au sèchage en étuve 37° et enfin au comptage.
# Le HIV1 est incubé 1 heure à 37° en présence d'AcN (D23, 621, N5-12), d'anticorps anti-NP (TNP11) ou en présence des dérivés NP (DNP-glycine et DNP-lysine). L'activité reverse transcriptase du HIV1 est testée immédiatement (cas des dérivés DNP-glycine et DNP-lysine). Alternativement, des lymphocytes humains sont infectés par le HIV1 préincubé avec les produits à tester, et la culture cellulaire est observée pendant 3 semaines par titrage de la reverse transcriptase. Durant cette période les cultures des lymphocytes humains ne contiennent pas d'anticorps ni d'antigène.
# HIV1 = HIV1 infection of human lymphocytes preincubated with antibodies or NP derivatives, reverse transcriptase in supernatants; format: cell-based; conditions: for activité reverse transcriptase (surnageants de culture): dérivés NP, concentration not given
# Experimental: as §1
# Les lymphocytes humains, préalablement activés par la PHA, sont incubés en présence des AcN, des anticorps anti-NP et des dérivés NP (DNP-glycine, DNP-lysine) pendant une nuit à 37°C. Le lendemain, le culot cellulaire est mis en présence du HIV1 pendant 1 heure à 37°C au bain-marie et les cellules sont resuspendues dans du milieu nutritif en présence des produits à tester. Les surnageants de culture sont testés pour l'activité reverse transcriptase pendant 3 semaines.
# [3] = test system: HVE (Herpes Virus Eidolon); experiment: Plaque method, neutralisation of HVE by coupled NP (TCC31 cells); format: cell-based
# From the text: L'effet des NP couplés (TNP-BSA, DNP-Glycine) a été évalué par la méthode des plages, comme pour le virus de la chorioméningite lymphocytaire dans l'exemple I. L'effet neutralisant des NP couplés a été évalué sur les virus enveloppés ou non enveloppés suivants :
# C'est un virus de l'herpès à double brin d'ADN que l'on cultive sur des cellules TCC31 de souris. Les résultats sont observés après 2 Jours de culture.
# Pour tous les virus testés, les dilutions des virus donnaient 50 plages/cupule.
# [4] = test system: IHDT-6 (International Health Division-Tumor-6); format: cell-based
# [5] = Vesicular stomatitis virus, L929
compound,measurement,setting,value
"O=C(O)CNc1ccc([N+](=O)[O-])cc1[N+](=O)[O-] [DNP-glycine, DNP-Glycine]",inhibition at 30 µg/mL,[1]; [5],0%
same,inhibition at 70 µg/mL,[1]; [5],0%
same,inhibition at 150 µg/mL,[1]; [5],6%
same,inhibition at 300 µg/mL,[1]; [5],38%
same,inhibition at 600 µg/mL,[1]; [5],47%
same,inhibition at 1200 µg/mL,[1]; [5],68%
same,inhibition at 2400 µg/mL,[1]; [5],41%
same,minimal effective concentration,"[1]; Vesicular stomatitis virus, L929, 72 h, read-out: a un effet jusqu'à une concentration de",1200 µg/mL
same,Activité reverse transcriptase,[2]; 10^-3M,5444
same,Activité reverse transcriptase,[2]; 10^-6M,3424
same,Activité reverse transcriptase,[2]; 10^-7M,4090
same,Activité reverse transcriptase,[2]; 10^-9M,3638
same,activité reverse transcriptase (surnageants de culture),"HIV1; 3 jours après l'infection, témoin virus 562",1064
same,activité reverse transcriptase (surnageants de culture),"HIV1; 6 jours après l'infection, témoin virus 1274",890
same,activité reverse transcriptase (surnageants de culture),"HIV1; 10 jours après l'infection, témoin virus 94474",1234
same,activité reverse transcriptase (surnageants de culture),"HIV1; 13 jours après l'infection, témoin virus 63944",1572
same,activité reverse transcriptase (surnageants de culture),"HIV1; 18 jours après l'infection, témoin virus 73368",1276
same,activité reverse transcriptase (surnageants de culture),"HIV1; 20 jours après l'infection, témoin virus 26840",1270
same,activité reverse transcriptase / infectivité virale par rapport au témoin virus (result in words),HIV1; lymphocytes incubés avec les produits,peuvent conduire à une inhibition totale de l'infectivité virale
same,inhibition at 300 µg/mL,"[3]; 0,3 mg/ml",48%
same,inhibition at 600 µg/mL,"[3]; 0,6 mg/ml",50%
same,inhibition at 70 µg/mL,"[3]; 0,07 mg/ml",28%
same,inhibition at 150 µg/mL,"[3]; 0,15 mg/ml",40%
same,inhibition at 1200 µg/mL,"[3]; 1,2 mg/ml",57%
same,inhibition at 2400 µg/mL,"[3]; 2,4 mg/ml",92%
same,minimal effective concentration,"[3]; 48 h, lowest concentration stated as seroneutralising, virus HVE, read-out: peut séroneutraliser le virus jusqu'à une concentration de",600 µg/mL
TNP-BSA,% Inhibition,"[1]; 0,03 mg/ml",0%
same,% Inhibition,"[1]; 0,5 mg/ml",12%
same,% Inhibition,"[1]; 0,06 mg/ml",0%
same,% Inhibition,"[1]; 0,12 mg/ml",0%
same,% Inhibition,"[1]; 0,25 mg/ml",0%
same,% Inhibition,"[1]; 1,0 mg/ml",15%
same,% Inhibition,"[1]; 2,0 mg/ml",24%
same,% Inhibition,"[4]; 0,3 mg/ml",37%
same,% Inhibition,"[4]; 0,6 mg/ml",51%
same,% Inhibition,"[4]; 0,07 mg/ml",21%
same,% Inhibition,"[4]; 0,15 mg/ml",31%
same,% Inhibition,"[4]; 1,2 mg/ml",73%
same,% Inhibition,"[4]; 2,4 mg/ml",72%
same,% Inhibition,"[3]; 0,03 mg/ml",0%
same,% Inhibition,"[3]; 0,5 mg/ml",55%
same,% Inhibition,"[3]; 0,06 mg/ml",5%
same,% Inhibition,"[3]; 0,12 mg/ml",16%
same,% Inhibition,"[3]; 0,25 mg/ml",35%
same,% Inhibition,"[3]; 1,0 mg/ml",79%

# Source: EP0316212B1 (priority 1987, dated 1989)
